One experiment has as its target T1, mTOR (Homo sapiens, UniProt P42345).
T1 construct: purchased Ambit Biosciences (contract assay)
The experiment is described as follows: Kinase competition binding assay (Ambit Biosciences), mTOR. The note with it: tested at Ambit Biosciences; read-out: IC50 against mTOR. Here is the method: (§1) Assays are performed as described in Fabian et al. (2005) Nature Biotechnology, vol. 23, p. 329 and in Karaman et al. (2008) Nature Biotechnology, vol. 26, p. 127.
(§2) Kinase assays. For most assays, kinase-tagged T7 phage strains are grown in parallel in 24-well blocks in an E. coli host derived from the BL21 strain. E. coli are grown to log-phase and are infected with T7 phage from a frozen stock (multiplicity of infection˜0.1) and are incubated with shaking at 32° C. until lysis (˜90 minutes). The lysates are centrifuged (6,000×g) and filtered ([…]) to remove cell debris. The remaining kinases are produced in HEK-293 cells and subsequently tagged with DNA for qPCR detection. Streptavidin-coated magnetic beads are treated with biotinylated small molecule ligands for 30 minutes at room temperature to generate affinity resins for kinase assays. The liganded beads are blocked with excess biotin and washed with blocking buffer (SeaBlock (Pierce), 1% BSA, 0.05% Tween 20, 1 mM DTT) to remove unbound ligand and to reduce non-specific phage binding. Binding reactions are assembled by combining kinases, liganded affinity beads, and test compounds in 1× binding buffer (20% SeaBlock, 0.17×PBS, 0.05% Tween 20, 6 mM DTT). Test compounds are prepared as 40× stocks in 100% DMSO and directly diluted into the assay. All reactions are performed in polypropylene 384-well plates in a final volume of 0.04 ml. The assay plates are incubated at room temperature with shaking for 1 hour and the affinity beads are washed with wash buffer (1×PBS, 0.05% Tween 20). The beads are then re-suspended in elution buffer (1×PBS, 0.05% Tween 20, 0.5 mM non-biotinylated affinity ligand) and are incubated at room temperature with shaking for 30 minutes. The kinase concentration in the eluates is measured by qPCR.
(§3) Compounds were tested using the above assay at Ambit Biosciences (San Diego, Calif., USA).

The target of the next experiment is T2, PI3Kα (Homo sapiens, UniProt P42336).
T2 construct: purchased Ambit Biosciences (contract assay)
Briefly: Kinase competition binding assay (Ambit Biosciences), PI3Kα. Particulars: tested at Ambit Biosciences; read-out: IC50 against PI3Kα. The method, then:
as §1, §2, §3

The next experiment has as its target T3, PI3Kβ (Homo sapiens, UniProt P42338).
T3 construct: purchased Ambit Biosciences (contract assay)
Briefly: Kinase competition binding assay (Ambit Biosciences), PI3Kβ. Particulars: tested at Ambit Biosciences; read-out: IC50 against PI3Kβ. The method, then: as §1, §2, §3

A further experiment deals with T4, PI3Kδ (Homo sapiens, UniProt O00329).
T4 construct: purchased Ambit Biosciences (contract assay)
T4 sequence (O00329 1-1044): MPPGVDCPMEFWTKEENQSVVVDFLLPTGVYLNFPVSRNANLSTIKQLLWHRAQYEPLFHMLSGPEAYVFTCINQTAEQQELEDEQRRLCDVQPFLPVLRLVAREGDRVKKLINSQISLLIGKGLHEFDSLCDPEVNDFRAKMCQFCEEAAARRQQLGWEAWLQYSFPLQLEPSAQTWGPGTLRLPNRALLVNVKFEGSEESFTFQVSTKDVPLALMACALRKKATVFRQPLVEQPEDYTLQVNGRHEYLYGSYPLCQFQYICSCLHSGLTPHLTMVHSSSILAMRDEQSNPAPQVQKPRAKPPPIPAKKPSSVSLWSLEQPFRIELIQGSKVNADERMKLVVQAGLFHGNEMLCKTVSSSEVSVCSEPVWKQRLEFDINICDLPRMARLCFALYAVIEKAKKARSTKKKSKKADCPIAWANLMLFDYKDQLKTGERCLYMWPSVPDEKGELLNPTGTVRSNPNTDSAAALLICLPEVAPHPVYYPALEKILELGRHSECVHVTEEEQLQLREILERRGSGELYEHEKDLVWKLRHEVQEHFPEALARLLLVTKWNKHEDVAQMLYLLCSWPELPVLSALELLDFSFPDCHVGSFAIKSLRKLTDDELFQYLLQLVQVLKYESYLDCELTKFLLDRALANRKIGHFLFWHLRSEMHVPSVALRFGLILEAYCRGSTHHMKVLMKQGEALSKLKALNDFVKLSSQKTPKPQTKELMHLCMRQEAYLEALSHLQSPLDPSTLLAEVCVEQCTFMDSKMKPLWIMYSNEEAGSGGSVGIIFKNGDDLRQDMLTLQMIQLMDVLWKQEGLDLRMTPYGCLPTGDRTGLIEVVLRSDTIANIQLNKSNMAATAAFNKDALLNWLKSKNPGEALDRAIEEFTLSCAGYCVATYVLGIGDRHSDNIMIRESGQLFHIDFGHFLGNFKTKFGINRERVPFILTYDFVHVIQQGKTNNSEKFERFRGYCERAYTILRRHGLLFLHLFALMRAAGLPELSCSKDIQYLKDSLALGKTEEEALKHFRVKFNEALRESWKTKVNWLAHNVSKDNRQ
The experiment is described as follows: Kinase competition binding assay (Ambit Biosciences), PI3Kδ. Particulars: tested at Ambit Biosciences; read-out: IC50 against PI3Kδ. Here is the method: as §1, §2, §3

For a further experiment, the target named is T5, PI3Kγ (Homo sapiens, UniProt P48736).
T5 construct: purchased Ambit Biosciences (contract assay)
The experiment is described as follows: Kinase competition binding assay (Ambit Biosciences), PI3Kγ. The note with it: tested at Ambit Biosciences; read-out: IC50 against PI3Kγ. The method, then: as §1, §2, §3

The next experiment deals with U87-MG cells. Briefly: Proliferation assay (Alamar blue), U87-MG. The note with it: Homo sapiens, U-87 MG, 48 h, 46-h incubation + 2-h Alamar blue, read-out: IC50 against proliferation of U87-MG cells. It counts as cell-based. The method, then: (§4) Cells (U87-MG, A375, HeLa, A549, MCF7, and MCF7 ADR-res) are cultured in DMEM with 10% fetal bovine serum and streptomycin/penicillin. Solutions of the test compounds (1 μL) are spotted onto a 96-well culture plate, followed by addition of cells (1×10^4) in 100 μL. After 46-h incubation, 10 μL of Alamar blue reagent is added to each well. After 2-h, the excitation/emission wavelengths at 544/590 nm are measured using Fluostar.
For orientation: The colour change of resazurin is a common sign of viable cells or microbes.

A further experiment relates to A549 cells. The experiment is described as follows: Proliferation assay (Alamar blue), A549. It is filed as cell-based. Particulars: Homo sapiens, 48 h; A549, 46-h incubation + 2-h Alamar blue; read-out: IC50 against proliferation of A549 cells. The method, then:
as §4

The text below walks through data of patent US8912178B2, “mTOR selective kinase inhibitors” (Xcovery Holdings Company, LLC, priority 2010, dated 2014).

T3 sequence (P42338 whole entry): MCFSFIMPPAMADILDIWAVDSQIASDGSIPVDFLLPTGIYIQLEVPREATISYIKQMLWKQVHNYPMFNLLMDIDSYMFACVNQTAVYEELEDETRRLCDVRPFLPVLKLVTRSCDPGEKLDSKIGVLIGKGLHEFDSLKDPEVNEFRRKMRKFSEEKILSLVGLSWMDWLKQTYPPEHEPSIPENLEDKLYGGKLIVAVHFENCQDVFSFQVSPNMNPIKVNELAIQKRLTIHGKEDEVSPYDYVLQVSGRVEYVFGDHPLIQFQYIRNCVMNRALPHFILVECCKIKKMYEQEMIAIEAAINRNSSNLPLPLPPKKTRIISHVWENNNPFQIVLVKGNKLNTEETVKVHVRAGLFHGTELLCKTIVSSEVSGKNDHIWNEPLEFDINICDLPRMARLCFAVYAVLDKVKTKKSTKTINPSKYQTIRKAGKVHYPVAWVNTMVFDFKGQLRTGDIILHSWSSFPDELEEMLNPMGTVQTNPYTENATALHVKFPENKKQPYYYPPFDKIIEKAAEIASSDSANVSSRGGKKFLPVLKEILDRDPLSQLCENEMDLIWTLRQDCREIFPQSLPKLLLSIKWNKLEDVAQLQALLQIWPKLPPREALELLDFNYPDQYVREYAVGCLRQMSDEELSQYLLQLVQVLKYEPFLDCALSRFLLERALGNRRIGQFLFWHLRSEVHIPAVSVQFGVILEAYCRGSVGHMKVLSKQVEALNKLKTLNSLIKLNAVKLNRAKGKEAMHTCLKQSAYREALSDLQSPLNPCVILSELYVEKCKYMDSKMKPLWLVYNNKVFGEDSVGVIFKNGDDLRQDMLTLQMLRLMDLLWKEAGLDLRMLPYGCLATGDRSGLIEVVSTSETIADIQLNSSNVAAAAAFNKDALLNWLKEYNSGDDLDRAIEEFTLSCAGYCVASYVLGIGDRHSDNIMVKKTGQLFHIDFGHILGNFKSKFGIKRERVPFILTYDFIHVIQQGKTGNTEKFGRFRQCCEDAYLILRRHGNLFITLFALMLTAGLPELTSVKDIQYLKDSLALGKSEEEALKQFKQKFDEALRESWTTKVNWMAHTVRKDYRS
T5 sequence (P48736 whole entry): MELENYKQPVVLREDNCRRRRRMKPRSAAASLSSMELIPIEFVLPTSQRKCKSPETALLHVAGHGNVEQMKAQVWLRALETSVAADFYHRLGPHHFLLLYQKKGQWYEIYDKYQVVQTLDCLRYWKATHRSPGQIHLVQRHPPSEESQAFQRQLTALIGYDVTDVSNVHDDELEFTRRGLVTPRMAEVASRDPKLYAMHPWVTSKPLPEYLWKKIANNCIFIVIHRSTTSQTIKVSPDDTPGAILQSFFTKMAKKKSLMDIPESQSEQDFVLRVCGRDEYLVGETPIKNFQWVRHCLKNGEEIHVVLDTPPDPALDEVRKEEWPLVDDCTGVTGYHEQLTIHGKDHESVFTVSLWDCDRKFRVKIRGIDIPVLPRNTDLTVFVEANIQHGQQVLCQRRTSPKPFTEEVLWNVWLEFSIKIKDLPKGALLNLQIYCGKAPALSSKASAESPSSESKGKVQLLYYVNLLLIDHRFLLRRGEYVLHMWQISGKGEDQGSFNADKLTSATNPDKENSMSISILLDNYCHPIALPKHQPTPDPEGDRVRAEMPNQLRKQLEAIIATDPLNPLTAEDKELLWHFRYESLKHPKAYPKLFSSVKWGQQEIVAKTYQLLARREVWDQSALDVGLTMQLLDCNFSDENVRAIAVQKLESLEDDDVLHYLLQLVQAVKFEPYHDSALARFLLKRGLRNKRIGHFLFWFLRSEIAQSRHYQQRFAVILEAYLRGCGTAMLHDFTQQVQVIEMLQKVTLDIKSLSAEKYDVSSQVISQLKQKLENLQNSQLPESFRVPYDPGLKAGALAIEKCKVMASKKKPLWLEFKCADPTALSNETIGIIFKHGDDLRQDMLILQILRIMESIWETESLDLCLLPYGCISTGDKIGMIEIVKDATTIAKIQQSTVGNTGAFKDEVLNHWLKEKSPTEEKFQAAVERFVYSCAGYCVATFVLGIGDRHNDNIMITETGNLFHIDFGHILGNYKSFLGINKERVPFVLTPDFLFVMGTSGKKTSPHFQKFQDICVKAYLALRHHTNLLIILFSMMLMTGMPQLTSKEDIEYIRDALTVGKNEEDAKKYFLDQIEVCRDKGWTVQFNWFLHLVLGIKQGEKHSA
T2 sequence (P42336 whole entry): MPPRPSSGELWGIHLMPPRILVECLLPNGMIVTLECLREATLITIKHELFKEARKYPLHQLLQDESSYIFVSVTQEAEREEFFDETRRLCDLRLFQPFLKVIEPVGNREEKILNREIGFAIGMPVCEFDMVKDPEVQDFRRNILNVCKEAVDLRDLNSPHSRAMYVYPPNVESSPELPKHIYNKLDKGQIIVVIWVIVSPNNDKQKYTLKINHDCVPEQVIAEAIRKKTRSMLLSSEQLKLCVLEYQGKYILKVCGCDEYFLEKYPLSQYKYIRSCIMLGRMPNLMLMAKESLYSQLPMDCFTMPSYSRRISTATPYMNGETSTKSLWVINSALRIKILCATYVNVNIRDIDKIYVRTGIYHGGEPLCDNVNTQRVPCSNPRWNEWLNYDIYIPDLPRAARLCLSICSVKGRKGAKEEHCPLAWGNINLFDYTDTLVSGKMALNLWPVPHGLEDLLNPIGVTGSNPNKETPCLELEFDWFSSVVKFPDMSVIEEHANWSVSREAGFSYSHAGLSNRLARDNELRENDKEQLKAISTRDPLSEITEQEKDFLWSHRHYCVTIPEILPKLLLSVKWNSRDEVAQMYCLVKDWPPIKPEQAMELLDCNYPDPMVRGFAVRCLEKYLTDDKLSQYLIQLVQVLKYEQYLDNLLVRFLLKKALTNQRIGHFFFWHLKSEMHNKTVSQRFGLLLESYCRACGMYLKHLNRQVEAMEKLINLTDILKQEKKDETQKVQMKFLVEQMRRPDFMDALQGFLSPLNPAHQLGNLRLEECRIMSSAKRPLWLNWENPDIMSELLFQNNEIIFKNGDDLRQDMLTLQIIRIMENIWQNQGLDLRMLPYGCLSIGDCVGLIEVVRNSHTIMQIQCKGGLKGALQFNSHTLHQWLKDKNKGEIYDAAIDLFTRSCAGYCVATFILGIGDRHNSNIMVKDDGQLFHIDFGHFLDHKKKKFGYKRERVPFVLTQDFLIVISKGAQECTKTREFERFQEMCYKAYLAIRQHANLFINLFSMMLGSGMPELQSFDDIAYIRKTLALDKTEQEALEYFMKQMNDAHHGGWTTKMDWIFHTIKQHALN

With `CCNC(=O)Nc1ccc(-c2nc(N3CCOCC3)nc3c2cnn3CC(C)(C)O)cc1` [Example 1, 1-ethyl-3-[4-[1-(2-hydroxy-2-methyl-propyl)-6-morpholino-pyrazolo[3,4-d]pyrimidin-4-yl]phenyl]urea], the IC50 at mTOR was less than 110 nM; on PI3Kα, greater than 100 nM; on PI3Kβ, greater than 100 nM; at PI3Kδ, greater than 100 nM; at PI3Kγ it was greater than 100 nM; in the experiment on U87-MG cells, less than 1000 nM. Besides, the IC50 in the experiment with A549 cells was less than 1000 nM.

On to `CNC(=O)Nc1ccc(-c2nc(N3CCOCC3)nc3c2cnn3CC(C)(C)O)cc1` [Example 2, 1-[4-[1-(2-hydroxy-2-methyl-propyl)-6-morpholino-pyrazolo[3,4-d]pyrimidin-4-yl]phenyl]-3-methyl-urea], for which the IC50 is less than 110 nM at mTOR; greater than 100 nM at PI3Kα; greater than 100 nM on PI3Kβ; greater than 100 nM at PI3Kδ; greater than 100 nM on PI3Kγ; less than 1000 nM in the experiment on U87-MG cells. Further, the IC50 in the experiment on A549 cells is less than 1000 nM.

For `CNC(=O)Nc1ccc(-c2nc(N3CCOCC3)nc3c2cnn3C(C)C)cc1` [Example 3, 1-[4-(1-isopropyl-6-morpholino-pyrazolo[3,4-d]pyrimidin-4-yl)phenyl]-3-methyl-urea], the IC50 on mTOR was less than 110 nM; on PI3Kα, greater than 100 nM; at PI3Kβ, greater than 100 nM; on PI3Kδ, greater than 100 nM; at PI3Kγ it was greater than 100 nM.

As for `CNC(=O)Nc1ccc(-c2nc(N3CCOCC3)nc3c2cnn3C2CCN(C(=O)OC)CC2)cc1` [Example 6, methyl 4-[4-[4-(methylcarbamoylamino)phenyl]-6-morpholino-pyrazolo[3,4-d]pyrimidin-1-yl]piperidine-1-carboxylate], the IC50 at mTOR is less than 110 nM; on PI3Kα, greater than 100 nM; at PI3Kβ, greater than 100 nM; at PI3Kδ it was greater than 100 nM; on PI3Kγ it was greater than 100 nM.

Consider `CNC(=O)Nc1ccc(-c2nc(N3CCOCC3)nc3c2cnn3C2CCN(C(=O)CO)CC2)cc1` [Example 9, 1-[4-[1-[1-(2-hydroxyacetyl)-4-piperidyl]-6-morpholino-pyrazolo[3,4-d]pyrimidin-4-yl]phenyl]-3-methyl-urea], for which the IC50 in the experiment with U87-MG cells and in the experiment with A549 cells was less than 1000 nM each time.

Take `CNC(=O)Nc1ccc(-c2nc(N3CCOCC3)nc3c2cnn3C2CCN(C(=O)[C@H](C)O)CC2)cc1` [Example 10, 1-[4-[1-[1-[(2S)-2-hydroxypropanoyl]-4-piperidyl]-6-morpholino-pyrazolo[3,4-d]pyrimidin-4-yl]phenyl]-3-methylurea]: the IC50 in the experiment with U87-MG cells and in the experiment with A549 cells was less than 1000 nM each time.

Take `CNC(=O)Nc1ccc(-c2nc(N3CCOCC3)nc3c2cnn3C2CCN(C(=O)COC)CC2)cc1` [Example 11, 1-[4-[1-[1-(2-methoxyacetyl)-4-piperidyl]-6-morpholino-pyrazolo[3,4-d]pyrimidin-4-yl]phenyl]-3-methyl-urea]: the IC50 with U87-MG cells and in the experiment with A549 cells was less than 1000 nM throughout.

Turning to `CNC(=O)Nc1ccc(-c2nc(N3CCOCC3)nc3c2cnn3C2CCOCC2)cc1` [Example 13, 1-methyl-3-[4-(6-morpholino-1-tetrahydropyran-4-yl-pyrazolo[3,4-d]pyrimidin-4-yl)phenyl]urea], the IC50 at mTOR was less than 110 nM; at PI3Kα, greater than 100 nM; on PI3Kβ it was greater than 100 nM; on PI3Kδ, greater than 100 nM; at PI3Kγ, greater than 100 nM; with U87-MG cells it was less than 1000 nM. Further, in the experiment with A549 cells, the IC50 was less than 1000 nM.

`CNC(=O)Nc1ccc(-c2nc(N3CC4CCC(C3)O4)nc3c2cnn3C2CCOCC2)cc1` [Example 14, 1-methyl-3-[4-[6-(8-oxa-3-azabicyclo[3.2.1]octan-3-yl)-1-tetrahydropyran-4-yl-pyrazolo[3,4-d]pyrimidin-4-yl]phenyl]urea]: the IC50 in the experiment with U87-MG cells and with A549 cells was less than 1000 nM throughout.

`CNC(=O)Nc1ccc(-c2nc(N3CCOC[C@@H]3C)nc3c2cnn3CC(C)(C)O)cc1` [Example 16, N-{4-[6-((3S)-3-methylmorpholin-4-yl)-1-(2-hydroxy-2-methylpropyl)pyrazolo[4,5-e]pyrimidin-4-yl]phenyl}(methylamino)carboxamide]: the IC50 at mTOR is less than 110 nM; at PI3Kα, greater than 100 nM; on PI3Kβ it was greater than 100 nM; on PI3Kδ it was greater than 100 nM; on PI3Kγ, greater than 100 nM.

For the compound `CNC(=O)Nc1ccc(-c2nc(N3CCOC[C@H]3C)nc3c2cnn3CC(C)(C)O)cc1` [Example 17, N-{4-[6-((3R)-3-methylmorpholin-4-yl)-1-(2-hydroxy-2-methylpropyl)pyrazolo[4,5-e]pyrimidin-4-yl]phenyl}(methylamino)carboxamide], the IC50 at mTOR was less than 110 nM; on PI3Kα it was greater than 100 nM; at PI3Kβ it was greater than 100 nM; at PI3Kδ, greater than 100 nM; at PI3Kγ, greater than 100 nM.

Turning to `CNC(=O)Nc1ccc(-c2nc(N3CCOCC3)nc3c2cnn3C2CCC(CO)CC2)cc1` (stereo not drawn) [Example 20, N-(4-{1-[4-(hydroxymethyl)cyclohexyl]-6-morpholin-4-ylpyrazolo[4,5-e]pyrimidin-4-yl}phenyl)(methylamino)carboxamide], the IC50 with U87-MG cells and in the experiment with A549 cells was less than 1000 nM each time.

In the case of `CNC(=O)Nc1ccc(-c2nc(N3CCOCC3)nc3c2cnn3C2CCC(O)CC2)cc1` (stereo not drawn) [Example 22, N-{4-[1-(4-hydroxycyclohexyl)-6-morpholin-4-ylpyrazolo[4,5-e]pyrimidin-4-yl]phenyl}(methylamino)carboxamide], the IC50 with U87-MG cells and in the experiment with A549 cells was less than 1000 nM throughout.

As for `CNC(=O)Nc1ccc(-c2nc(N3CCOCC3)nc3c2cnn3C2CCCC2)cc1` [Example 24, N-[4-(1-cyclopentyl-6-morpholin-4-ylpyrazolo[4,5-e]pyrimidin-4-yl)phenyl](methylamino)carboxamide], the IC50 in the experiment on U87-MG cells and with A549 cells was less than 1000 nM in each case.

Turning to `CNC(=O)Nc1ccc(-c2nc(N3CCOC[C@@H]3C)nc3c2cnn3C2CCCC2)cc1` [Example 25, N-{4-[6-((3S)-3-methylmorpholin-4-yl)-1-cyclopentylpyrazolo[4,5-e]pyrimidin-4-yl]phenyl}(methylamino)carboxamide], the IC50 in the experiment on U87-MG cells and in the experiment with A549 cells was less than 1000 nM throughout.
